{"source": "patent US20190022016A1", "about": "“COMPOSITIONS FOR SUSTAINED RELEASE OF ANTI-GLAUCOMA AGENTS TO CONTROL INTRAOCULAR PRESSURE” (The Johns Hopkins University, priority 2016, published 2019)", "key": {"[1]": {"settings": "systemic; cited from earlier work"}, "[2]": {"assay": "In vitro drug release from microparticles in PBS", "assay_type": "physicochemical", "settings": "for duration of in vitro drug release: PBS pH 7.4, 37° C., infinite sink, PEG3-PSA microparticles, 2% PEG; for drug released during the first 6 days / release over the initial 24 hours: from PEG3-PSA, infinite sink conditions", "experimental": "PEG3-PSA is a polyanhydride polymer that undergoes surface erosion to deliver continuous drug release and has been previously used for ocular delivery. Particle disappearance parallels drug release due to surface erosion. Particles were suspended in phosphate buffered saline (PBS, pH 7.4) at 5 mg/mL and incubated at 37° C. on a rotating platform (140 RPM). At selected time points, supernatant was collected by centrifugation (8,000×g for 5 min) and particles were resuspended in fresh PBS. Drug content was measured by spectraphotometer."}}}
{"compound": "CC(=O)Nc1nnc(S(N)(=O)=O)s1", "note": "[acetazolamide]", "values": [{"measurement": "IOP reduction", "setting": "[1]", "result": 30, "unit": "%"}]}
{"compound": "CCN[C@H]1CN(CCCOC)S(=O)(=O)c2sc(S(N)(=O)=O)cc21", "note": "[brinzolamide]", "values": [{"measurement": "duration of in vitro drug release", "setting": "[2]", "result": 12, "unit": "days"}, {"measurement": "drug released during the first 6 days", "setting": "[2]", "result": 80, "unit": "%"}, {"measurement": "release over the initial 24 hours", "setting": "[2]", "result": 12, "unit": "%"}]}
{"compound": "CCN[C@H]1C[C@H](C)S(=O)(=O)c2sc(S(N)(=O)=O)cc21", "note": "[dorzolamide]", "values": [{"measurement": "duration of in vitro drug release", "setting": "[2]", "result": 12, "unit": "days"}, {"measurement": "drug released during the first 6 days", "setting": "[2]", "result": 80, "unit": "%"}, {"measurement": "release over the initial 24 hours", "setting": "[2]", "result": 18, "unit": "%"}]}
